Laboratory results as given in PubChem BioAssay AID206 (DTP/NCI, 2004).
Where “and” joins values, the source holds several entries; their conditions need not be identical. Equal entries are not always repeated. Inconclusive results are not listed.

Tested on: nude mice, HT29 intrarenal xenograft, tumor weight T/C
Assay: NCI In Vivo Anticancer Drug Screen. Data for tumor model HT29;CX-1 Human Adenocarcinoma (MER+) (intrarenal inoculation) in NU/NU Swiss (nude) mice
Settings: endpoint: mean tumor weight change, higher = larger tumour
Summary of the method: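 Mice with transplanted tumors are dosed with compound while controls get vehicle only. Survival or tumor burden is then assessed per group, and the treated value is expressed relative to control.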

[1] = dose: 150.0 mg/kg/injection, schedule: Q04DX004 (sc), vehicle: saline with Tween-80
[2] = dose: 300.0 mg/kg/injection, schedule: Q04DX004 (sc), vehicle: saline with Tween-80
[3] = dose: 50.0 mg/kg/injection, schedule: Q04DX004 (sc), vehicle: Klucel (hydroxypropylcellulose) (HPC)

Compound: CN1C(=O)NC(c2ccc(Cl)cc2)(c2ccc(Cl)cc2)C1=O
- T/C (dose: 50.0 mg/kg/injection, schedule: Q01DX010 (sc), vehicle: saline with Tween-80): 97 % of control
- T/C (dose: 100.0 mg/kg/injection, schedule: Q01DX010 (sc), vehicle: saline with Tween-80): 109 % of control
- T/C (dose: 400.0 mg/kg/injection, schedule: Q01DX010 (sc), vehicle: saline with Tween-80): 43 % of control

Compound: COc1c(C=O)c2c(c(OC)c1OC)-c1ccc(OC)c(=O)cc1[C@@H](NC(C)=O)CC2
- T/C (dose: 18.75 mg/kg/injection, schedule: Q04DX004 (sc), vehicle: Klucel (hydroxypropylcellulose) (HPC)): 70 % of control
- T/C (dose: 37.5 mg/kg/injection, schedule: Q04DX004 (sc), vehicle: Klucel (hydroxypropylcellulose) (HPC)): 71 % of control

Compound: CSCS(=O)C[C@H](CO)NC(=O)/C=C/c1c(C)[nH]c(=O)[nH]c1=O (some centres undefined)
- T/C (dose: 0.75 mg/kg/injection, schedule: Q04DX004 (sc), vehicle: saline): 111 % of control
- T/C (dose: 1.5 mg/kg/injection, schedule: Q04DX004 (sc), vehicle: saline): 81 % of control

Compound: Cc1ncc([N+](=O)[O-])n1CCSC(N)=O
- T/C (dose: 400.0 mg/kg/injection, schedule: Q04DX004 (sc), vehicle: saline with Tween-80): 112 % of control
- T/C (dose: 800.0 mg/kg/injection, schedule: Q04DX004 (sc), vehicle: saline with Tween-80): 76 % of control
- T/C (dose: 1600.0 mg/kg/injection, schedule: Q04DX004 (sc), vehicle: saline with Tween-80): 111 % of control

Compound: CC1=C(C)C(=O)O[C@@H]([C@](C)(O)[C@]2(O)CC[C@@]3(O)[C@@H]4C[C@H]5O[C@]56[C@@H](O)C=CC(=O)[C@]6(C)[C@H]4CC[C@]23C)C1
- T/C (dose: 4.0 mg/kg/injection, schedule: Q01DX010 (sc), vehicle: saline): 169 % of control
- T/C (dose: 64.0 mg/kg/injection, schedule: Q01DX010 (sc), vehicle: saline): 46 % of control

Compound: BrC1c2cccc3cccc(c23)C1Br (centres undefined)
- T/C [1]: 186 % of control
- T/C (dose: 1200.0 mg/kg/injection, schedule: Q04DX004 (sc), vehicle: saline with Tween-80): 36 % of control and 39 % of control

Compound: COc1ccc([I+]c2cccc(Cl)c2)cc1Cl
- T/C (dose: 37.5 mg/kg/injection, schedule: Q04DX004 (sc), vehicle: saline with Tween-80): 67 % of control
- T/C (dose: 75.0 mg/kg/injection, schedule: Q04DX004 (sc), vehicle: saline with Tween-80): 48 % of control
- T/C [1]: 58 % of control
- T/C [2]: 39 % of control
- T/C (dose: 600.0 mg/kg/injection, schedule: Q04DX004 (sc), vehicle: saline with Tween-80): 64 % of control

Compound: COc1ccc(OC)c(Cc2cnc3nc(N)nc(N)c3c2C)c1
- T/C (dose: 150.0 mg/kg/injection, schedule: Q04DX004 (sc), vehicle: water): 116 % of control
- T/C (dose: 300.0 mg/kg/injection, schedule: Q04DX004 (sc), vehicle: water): 54 % of control

Compound: O=C1CN(Cc2ccc3c(c2)OCO3)NO1
- T/C [1]: 92 % of control
- T/C [2]: 103 % of control

Compound: O=NN(CCCl)C(=O)NC1CCCCC1
- T/C (dose: 8.0 mg/kg/injection, schedule: Q01DX010 (sc), vehicle: saline with Tween-80): 85 % of control
- T/C (dose: 8.0 mg/kg/injection, schedule: Q04DX004 (sc), vehicle: carboxymethylcellulose (CMC)): 99 % of control
- T/C (dose: 16.0 mg/kg/injection, schedule: Q01DX010 (sc), vehicle: saline with Tween-80): 42 % of control
- T/C (dose: 16.0 mg/kg/injection, schedule: Q04DX004 (sc), vehicle: carboxymethylcellulose (CMC)): 86 % of control
- T/C (dose: 25.0 mg/kg/injection, schedule: Q04DX004 (sc), vehicle: Klucel (hydroxypropylcellulose) (HPC)): 63 % of control
- T/C (dose: 32.0 mg/kg/injection, schedule: Q01DX010 (sc), vehicle: saline with Tween-80): 77 % of control
- T/C (dose: 32.0 mg/kg/injection, schedule: Q04DX004 (sc), vehicle: carboxymethylcellulose (CMC)): 89 % of control
- T/C [3]: 116 % of control
- T/C (dose: 64.0 mg/kg/injection, schedule: Q04DX004 (sc), vehicle: carboxymethylcellulose (CMC)): 101 % of control

Compound: C(C#CCN1CCOCC1)#CCN1CCOCC1
- T/C (dose: 600.0 mg/kg/injection, schedule: Q04DX004 (sc), vehicle: Klucel (hydroxypropylcellulose) (HPC)): 100 % of control
- T/C (dose: 1200.0 mg/kg/injection, schedule: Q04DX004 (sc), vehicle: Klucel (hydroxypropylcellulose) (HPC)): 72 % of control
- T/C (dose: 2400.0 mg/kg/injection, schedule: Q04DX004 (sc), vehicle: Klucel (hydroxypropylcellulose) (HPC)): 68 % of control

Compound: CCCC(=O)OCc1cc(=O)n(C)c2c3c4c(cc12)c(C)cc(=O)n4CO3
- T/C (dose: 200.0 mg/kg/injection, schedule: Q01DX010 (sc), vehicle: Klucel (hydroxypropylcellulose) (HPC)): 71 % of control

Compound: CCCCCC[C@@H](O)C/C=C\CCCCCCCC(=O)OCCO
- T/C (dose: 300.0 mg/kg/injection, schedule: Q04DX004 (sc), vehicle: saline): 21 % of control
- T/C (dose: 600.0 mg/kg/injection, schedule: Q04DX004 (sc), vehicle: saline): 155 % of control
- T/C (dose: 1200.0 mg/kg/injection, schedule: Q04DX004 (sc), vehicle: saline): 169 % of control
- T/C (dose: 2400.0 mg/kg/injection, schedule: Q04DX004 (sc), vehicle: saline): 230 % of control

Compound: Nc1nc(=S)c2ncn(C3CC(O)C(CO)O3)c2[nH]1 (centres undefined)
- T/C (dose: 1.8 mg/kg/injection, schedule: Q04DX004 (sc), vehicle: saline with Tween-80): 119 % of control
- T/C (dose: 3.75 mg/kg/injection, schedule: Q04DX004 (sc), vehicle: saline with Tween-80): 105 % of control
- T/C (dose: 7.5 mg/kg/injection, schedule: Q04DX004 (sc), vehicle: saline with Tween-80): 107 % of control
- T/C (dose: 100.0 mg/kg/injection, schedule: Q01DX010 (sc), vehicle: Klucel (hydroxypropylcellulose) (HPC)): 114 % of control

Compound: COc1ccc(Cl)[n+]([O-])n1
- T/C [3]: 64 % of control
- T/C (dose: 100.0 mg/kg/injection, schedule: Q04DX004 (sc), vehicle: Klucel (hydroxypropylcellulose) (HPC)): 66 % of control

Compound: [N-]=[N+]=CC(=O)CCC(N)C(=O)O (centres undefined)
- T/C (dose: 0.1 mg/kg/injection, schedule: Q01DX010 (sc), vehicle: saline): 73 % of control
- T/C (dose: 0.2 mg/kg/injection, schedule: Q01DX010 (sc), vehicle: saline): 43 % of control

Compound: CC(=O)Oc1c[nH]c(=O)[nH]c1=O
- T/C (dose: 100.0 mg/kg/injection, schedule: Q04DX004 (sc), vehicle: distilled water + Tween-80): 122 % of control
- T/C (dose: 200.0 mg/kg/injection, schedule: Q04DX004 (sc), vehicle: distilled water + Tween-80): 117 % of control
- T/C (dose: 400.0 mg/kg/injection, schedule: Q04DX004 (sc), vehicle: distilled water + Tween-80): 107 % of control
- T/C (dose: 800.0 mg/kg/injection, schedule: Q04DX004 (sc), vehicle: distilled water + Tween-80): 93 % of control

Compound: O=c1[nH]c(=O)n(C2CC(O)C(CO)O2)cc1F (centres undefined)
- T/C (dose: 25.0 mg/kg/injection, schedule: Q01DX010 (sc), vehicle: water): 65 % of control
- T/C (dose: 50.0 mg/kg/injection, schedule: Q01DX010 (sc), vehicle: water): 75 % of control
